The values that follow come from paper PMC5007466, “VCP recruitment to mitochondria causes mitophagy impairment and neurodegeneration in models of Huntington's disease” (Nature Communications, 2016).

This assay concerns HdhQ111 / HdhQ7 mouse striatal cells. The assay is described as follows: Mitochondrial morphology, anti-Tom20 staining. In kind it is cell-based. On the procedure:
Figure 4 HV-3 treatment reduces mitochondrial damage and cell death in HD cell cultures. Mouse HdhQ7 and HdhQ111 striatal cells were treated with control peptide TAT or peptide HV-3 (3 uM/day for 3 days). (a) Left panel: Mitochondrial membrane potential (MMP) was determined by TMRM fluorescent dye. Right panel: HdhQ111 cells were transfected with control siRNA (siCon) and VCP siRNA (siVCP) for three days. The MMP was determined by TMRM in HdhQ111 cells treated with TAT or HV-3. (b) Mitochondrial morphology was determined by staining cells with anti-Tom20 antibody. Scale bar: 10 μm. The percentage of cells with fragmented mitochondria relative to the total number of cells was quantitated. At least 100 cells per group were counted. (c) Mitochondrial morphology was determined by EM. The length of mitochondria and the number of mitophagosomes were quantitated. At least 90 mitochondria per group were counted. […] HMGB1 release into culture medium was determined by IB analysis with anti-HMGB1 antibody. […] Cell death was determined by the release of LDH. […] (g) Quantitation of neurite length of medium spiny neurons. At least 50 neurons per group were counted by an observer blind to experimental conditions. (h) Left: the MMP was determined by TMRM fluorescent dye. […] Mitochondrial length along neurites of DARPP32/Tuj1-positive neurons was quantitated. […]

As to `CSCC[C@H](NC(=O)[C@@H](NC(=O)[C@H](CC(C)C)NC(=O)[C@@H](NC(=O)[C@H](Cc1c[nH]cn1)NC(=O)CCCCCNC(=O)[C@H](CCCNC(=N)N)NC(=O)[C@H](CCCNC(=N)N)NC(=O)[C@H](CCCNC(=N)N)NC(=O)[C@H](CCC(N)=O)NC(=O)[C@H](CCCNC(=N)N)NC(=O)[C@H](CCCNC(=N)N)NC(=O)[C@H](CCCCN)NC(=O)[C@H](CCCCN)NC(=O)[C@H](CCCNC(=N)N)NC(=O)CNC(=O)[C@@H](N)Cc1ccc(O)cc1)C(C)C)C(C)C)C(=O)N[C@@H](CS)C(=O)N[C@@H](C)C(=O)N[C@H](C(N)=O)[C@@H](C)O` [HV-3], the fragmented mitochondria entry (HdhQ111 cells, 3 uM/day for 3 days, anti-Tom20) is recorded as “reduced the number of fragmented mitochondria”. The “mitochondrial morphology, wt” value (wt counterparts of the HD models) is “only minor effects”.
